For assay [1], the target named is PIM1 transgenic cells (Ba/F3) (Homo sapiens, UniProt P11309). The assay is described as follows: Proliferation inhibitory effect on PIM1 transgenic cells. It counts as cell-based, mouse. The note with it: proliferation inhibition, 72 hours, Cell Counting Kit-8, read-out: PIM1 IC50. Summed up:
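Mouse Ba/F3 pro-B cells were retrovirally transduced with human PIM1 so that their proliferation depends on PIM1. Cells were treated with compound at 1–10000 nM final for 72 h, then read by CCK-8 (OD450−OD650). Inhibition was set against DMSO (0%) and no-cell blank (100%), and IC50 was obtained by two-parameter logistic regression.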
Background: Tetrazolium assays rely on reduction of a dye to a coloured formazan, in cell work by metabolically active cells.

Assay [2] has as its target T1, PIM1 serine/threonine kinase (Homo sapiens, UniProt P11309).
T1 construct: purchased Carna Bioscience, Inc
The assay is described as follows: PIM1 serine/threonine kinase inhibitory effect. The settings on record: PIM1 serine/threonine kinase activity; ATP 40 μM; 30° C., 30 minutes. The format is biochemical. Summed up: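 Recombinant PIM1 (0.15 μg/ml final) with 0.5 μM biotinylated substrate and 40 μM ATP in pH 7.0 HEPES/MgCl2 buffer, 30 min at 30° C. Compound range was 0.01–10000 nM final, n=2. HTRF detection with streptavidin-XL665 and anti-phospho antibody-cryptate, 1 h; IC50 from non-linear regression of the 665/620 ratio.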

This is an account of results in US20220024921A1, “1,3,4-OXADIAZOLONE COMPOUND AND PHARMACEUTICAL” (NIPPON SHINYAKU CO., LTD., priority 2018, published 2022).

Where a name gives a salt, the structure may show the parent alone.

T1 sequence (P11309 whole entry): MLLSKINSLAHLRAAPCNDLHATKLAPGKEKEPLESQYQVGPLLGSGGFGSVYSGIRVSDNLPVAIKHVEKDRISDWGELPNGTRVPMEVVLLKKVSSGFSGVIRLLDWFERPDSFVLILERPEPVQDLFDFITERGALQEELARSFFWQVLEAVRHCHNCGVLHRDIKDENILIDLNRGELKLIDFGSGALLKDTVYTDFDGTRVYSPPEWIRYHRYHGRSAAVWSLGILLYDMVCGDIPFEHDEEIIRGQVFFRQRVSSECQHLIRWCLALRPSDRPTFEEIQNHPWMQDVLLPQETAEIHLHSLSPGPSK
Chain of PIM1 transgenic cells (Ba/F3) (P11309 whole entry, stated change not applied): as the sequence (P11309 whole entry) above

Regarding `C[C@H](Nc1cc(-c2n[nH]c(=O)o2)cc(Cl)c1Cl)[C@H]1C[C@@H](N)C1` [Example 179, 5-[3-({(1S)-1-[(1s,3R)-3-aminocyclobutyl]ethyl}amino)-4,5-dichlorophenyl]-1,3,4-oxadiazol-2(3H)-one dihydrochloride], in assay [1], the GI50 is 23 nM. Moreover, the IC50 (usually the concentration needed to halve the response being measured) in assay [2] came out at 2 nM.
Consider `C[C@H](Nc1cc(-c2n[nH]c(=O)o2)cc(F)c1OC(F)(F)F)[C@H]1C[C@@H](N)C1` [Example 180, 5-[3-({(1S)-1-[(1s,3R)-3-aminocyclobutyl]ethyl}amino)-5-fluoro-4-(trifluoromethoxy)phenyl]-1,3,4-oxadiazol-2(3H)-one hydrochloride], for which, in assay [1], the GI50 was found to be 30 nM. In addition, the half-maximal inhibitory concentration (IC50) in assay [2] turned out to be 2.2 nM.
With `CC[C@H](Nc1cc(-c2n[nH]c(=O)o2)ccc1C(F)(F)F)[C@H]1CC[C@H](N)CC1` [Example 181, 5-[3-({(1S)-1-[(1r,4S)-4-aminocyclohexyl]propyl}amino)-4-(trifluoromethyl)phenyl]-1,3,4-oxadiazol-2(3H)-one hydrochloride], the GI50 in assay [1] is 68 nM. Also, in assay [2], inhibition was half-maximal at 3.5 nM (IC50).
The matching figures for `C[C@H](Nc1cc(-c2n[nH]c(=O)o2)cc(Br)c1Cl)[C@H]1C[C@@H](N)C1` [Example 182, 5-[3-({(1S)-1-[(1s,3R)-3-aminocyclobutyl]ethyl}amino)-5-bromo-4-chlorophenyl]-1,3,4-oxadiazol-2(3H)-one hydrochloride]: 45 nM and 1.7 nM.
With `C[C@H](Nc1cc(-c2n[nH]c(=O)o2)cc(C(F)(F)F)c1Cl)[C@H]1C[C@@H](N)C1` [Example 183, 5-[3-({(1S)-1-[(1s,3R)-3-aminocyclobutyl]ethyl}amino)-4-chloro-5-(trifluoromethyl)phenyl]-1,3,4-oxadiazol-2(3H)-one hydrochloride], the GI50 in assay [1] is 45 nM. Further, inhibition in assay [2] was half-maximal at 1.8 nM (IC50).
For the compound `CC(=O)N[C@H]1C[C@@H](CNc2cc(-c3n[nH]c(=O)o3)ccc2C(F)(F)F)C1(C)C` [Example 184, N-[(1S,3R)-2,2-dimethyl-3-{[5-(5-oxo-4,5-dihydro-1,3,4-oxadiazol-2-yl)-2-(trifluoromethyl)anilino]methyl}cyclobutyl]acetamide], the GI50 in assay [1] was 880 nM. The compound further registered an IC50 in assay [2] of 65 nM.
As to `C[C@H](Nc1cc(-c2n[nH]c(=O)o2)ccc1C(F)(F)F)C12C3C4C1C1C2C3C41N` (stereo partly drawn) [Example 186, 5-[3-({(1S)-1-[(2S,3R)-4-aminocuban-1-yl]ethyl}amino)-4-(trifluoromethyl)phenyl]-1,3,4-oxadiazol-2(3H)-one hydrochloride], the GI50 in assay [1] amounted to 2300 nM. The compound also came in with a concentration for half-maximal inhibition (IC50) in assay [2] of 11 nM.
On to `C[C@H](Nc1cc(-c2n[nH]c(=O)o2)ccc1C(F)(F)F)C12CCC(N)(CC1)C2` [Example 187, 5-[3-{[(1S)-1-(4-aminobicyclo[2.2.1]heptan-1-yl)ethyl]amino}-4-(trifluoromethyl)phenyl]-1,3,4-oxadiazol-2(3H)-one hydrochloride], for which the GI50 in assay [1] is 110 nM. Moreover, in assay [2], the IC50 came out at 8.7 nM.
The matching figures for `C[C@H](Nc1cc(-c2n[nH]c(=O)o2)ccc1C(F)(F)F)[C@@H]1CC[C@@H](N)CO1` [Example 188, 5-[3-({(S)-1-[(2S,5R)-5-aminotetrahydro-2H-pyran-2-yl]ethyl}amino)-4-(trifluoromethyl)phenyl]-1,3,4-oxadiazol-2(3H)-one]: 56 nM and 2.9 nM.
With `CN[C@H]1CC[C@H]([C@H](C)Nc2cc(-c3n[nH]c(=O)o3)ccc2C(F)(F)F)CC1` [Example 189, 5-[3-({(1S)-1-[(1r,4S)-4-(methylamino)cyclohexyl]ethyl}amino)-4-(trifluoromethyl)phenyl]-1,3,4-oxadiazol-2(3H)-one hydrochloride], the GI50 in assay [1] came to 44 nM. The compound further had an IC50 in assay [2] of 2.2 nM.
Regarding `CN[C@H]1CC[C@H]([C@H](C)Nc2cc(-c3n[nH]c(=O)o3)cc(F)c2C(F)(F)F)CC1` [Example 190, 5-[3-fluoro-5-({(1S)-1-[(1r,4S)-4-(methylamino)cyclohexyl]ethyl}amino)-4-(trifluoromethyl)phenyl]-1,3,4-oxadiazol-2(3H)-one hydrochloride], the GI50 in assay [1] stood at 41 nM. The compound also registered a concentration for half-maximal inhibition (IC50) in assay [2] of 1.9 nM.
Consider `C[C@H](Nc1cc(-c2n[nH]c(=O)o2)ccc1C(F)(F)F)[C@@H]1CCC[C@H](N)C1` [Example 191, 5-[3-({(1S)-1-[(1R,3S)-3-aminocyclohexyl]ethyl}amino)-4-(trifluoromethyl)phenyl]-1,3,4-oxadiazol-2(3H)-one hydrochloride], for which the GI50 in assay [1] is 160 nM. The same compound returned an IC50 in assay [2] of 11 nM.
In the case of `CN[C@H]1C[C@@H]([C@H](C)Nc2cc(-c3n[nH]c(=O)o3)ccc2C(F)(F)F)C1` [Example 192, 5-[3-({(1S)-1-[(1s,3R)-3-(methylamino)cyclobutyl]ethyl}amino)-4-(trifluoromethyl)phenyl]-1,3,4-oxadiazol-2(3H)-one hydrochloride], the GI50 in assay [1] amounted to 47 nM. In assay [2], this compound registered a 50% inhibitory concentration (IC50) of 2.6 nM.
On to `CCN[C@H]1CC[C@H]([C@H](C)Nc2cc(-c3n[nH]c(=O)o3)ccc2C(F)(F)F)CC1` [Example 193, 5-[3-({(1S)-1-[(1r,4S)-4-(ethylamino)cyclohexyl]ethyl}amino)-4-(trifluoromethyl)phenyl]-1,3,4-oxadiazol-2(3H)-one hydrochloride], for which, in assay [1], the GI50 is 160 nM. The same compound gave an IC50 in assay [2] of 6.1 nM.
Turning to `C[C@H](Nc1cc(-c2n[nH]c(=O)o2)ccc1C(F)(F)F)[C@H]1CCC[C@@H](N)C1` [Example 194, 5-[3-({(1S)-1-[(1S,3R)-3-aminocyclohexyl]ethyl}amino)-4-(trifluoromethyl)phenyl]-1,3,4-oxadiazol-2(3H)-one hydrochloride], the GI50 in assay [1] is 280 nM. This compound also yielded a half-inhibitory concentration (IC50) in assay [2] of 12 nM.
Take `CCN[C@H]1C[C@@H]([C@H](C)Nc2cc(-c3n[nH]c(=O)o3)ccc2C(F)(F)F)C1` [Example 195, 5-[3-({(1S)-1-[(1s,3R)-3-(ethylamino)cyclobutyl]ethyl}amino)-4-(trifluoromethyl)phenyl]-1,3,4-oxadiazol-2(3H)-one hydrochloride]: in assay [1], the GI50 came out at 140 nM. The compound further had a half-maximal inhibitory concentration (IC50) in assay [2] of 8.1 nM.
Turning to `C[C@H](Nc1cc(-c2n[nH]c(=O)o2)ccc1C(F)(F)F)[C@H]1C[C@@H](NCC2CC2)C1` [Example 196, 5-[3-{[(1S)-1-{(1s,3R)-3-[(cyclopropylmethyl)amino]cyclobutyl}ethyl]amino}-4-(trifluoromethyl)phenyl]-1,3,4-oxadiazol-2(3H)-one hydrochloride], the GI50 in assay [1] worked out at 250 nM. The compound further yielded an IC50 in assay [2] of 9.2 nM.
In the case of `C[C@H](Nc1cc(-c2n[nH]c(=O)o2)ccc1C(F)(F)F)[C@H]1CC[C@H](NCC(F)(F)F)CC1` [Example 197, 5-[3-{[(1S)-1-{(1r,4S)-4-[(2,2,2-trifluoroethyl)amino]cyclohexyl}ethyl]amino}-4-(trifluoromethyl)phenyl]-1,3,4-oxadiazol-2(3H)-one hydrochloride], the GI50 in assay [1] is 1900 nM. This compound also came in with an IC50 in assay [2] of 140 nM.
With `CC[C@H](Nc1cc(-c2n[nH]c(=O)o2)cc(F)c1C(F)(F)F)[C@H]1CC[C@H](N)CC1` [Example 198, 5-[3-({(1S)-1-[(1r,4S)-4-aminocyclohexyl]propyl}amino)-5-fluoro-4-(trifluoromethyl)phenyl]-1,3,4-oxadiazol-2(3H)-one], the GI50 in assay [1] came to 100 nM. This compound yielded a half-inhibitory concentration (IC50) in assay [2] of 3.5 nM.
In the case of `C[C@H](Nc1cc(-c2n[nH]c(=O)o2)ccc1C(F)(F)F)[C@H]1CC[C@@H](N)C1` [Example 199, 5-[3-({(1S)-1-[(1S,3R)-3-aminocyclopentyl]ethyl}amino)-4-(trifluoromethyl)phenyl]-1,3,4-oxadiazol-2(3H)-one hydrochloride], the GI50 in assay [1] amounted to 110 nM. The half-inhibitory concentration (IC50) in assay [2] turned out to be 3.9 nM.
Turning to `C[C@H](Nc1cc(-c2n[nH]c(=O)o2)ccc1C(F)(F)F)[C@@H]1CC[C@H](N)C1` [Example 200, 5-[3-({(1S)-1-[(1R,3S)-3-aminocyclopentyl]ethyl}amino)-4-(trifluoromethyl)phenyl]-1,3,4-oxadiazol-2(3H)-one hydrochloride], the GI50 in assay [1] was determined as 100 nM. Besides, in assay [2], half-maximal inhibition (IC50) required 8.5 nM.
Regarding `C[C@H](Nc1cc(-c2n[nH]c(=O)o2)ccc1C(F)(F)F)[C@H]1CC[C@H](NCCO)CC1` [Example 201, 5-[3-{[(1S)-1-{(1r,4S)-4-[(2-hydroxyethyl)amino]cyclohexyl}ethyl]amino}-4-(trifluoromethyl)phenyl]-1,3,4-oxadiazol-2(3H)-one hydrochloride], in assay [1], the GI50 stood at 560 nM. This compound yielded an IC50 in assay [2] of 8.7 nM.
Turning to `CN[C@H]1C[C@@H]([C@H](C)Nc2cc(-c3n[nH]c(=O)o3)cc(F)c2C(F)(F)F)C1` [Example 203, 5-[3-fluoro-5-({(1S)-1-[(1s,3R)-3-(methylamino)cyclobutyl]ethyl}amino)-4-(trifluoromethyl)phenyl]-1,3,4-oxadiazol-2(3H)-one hydrochloride], the GI50 in assay [1] stood at 54 nM. The 50% inhibitory concentration (IC50) in assay [2] amounted to 3.6 nM.
Take `CN[C@H]1CC[C@H]([C@H](C)Nc2cc(-c3n[nH]c(=O)o3)cc(F)c2OC(F)(F)F)CC1` [Example 204, 5-[3-fluoro-5-({(1S)-1-[(1r,4S)-4-(methylamino)cyclohexyl]ethyl}amino)-4-(trifluoromethoxy)phenyl]-1,3,4-oxadiazol-2(3H)-one hydrochloride]: in assay [1], the GI50 came to 57 nM. In assay [2], this compound displayed a concentration for half-maximal inhibition (IC50) of 3.5 nM.
